54 molecules from patent US10501435B2, “Substituted quinazoline compounds and uses thereof for modulating glucocerebrosidase activity” (Northwestern University, priority 2015, dated 2019) can be followed below.

Structures are written as SMILES.

Glucocerebrosidase, sequence (P04062 40-536): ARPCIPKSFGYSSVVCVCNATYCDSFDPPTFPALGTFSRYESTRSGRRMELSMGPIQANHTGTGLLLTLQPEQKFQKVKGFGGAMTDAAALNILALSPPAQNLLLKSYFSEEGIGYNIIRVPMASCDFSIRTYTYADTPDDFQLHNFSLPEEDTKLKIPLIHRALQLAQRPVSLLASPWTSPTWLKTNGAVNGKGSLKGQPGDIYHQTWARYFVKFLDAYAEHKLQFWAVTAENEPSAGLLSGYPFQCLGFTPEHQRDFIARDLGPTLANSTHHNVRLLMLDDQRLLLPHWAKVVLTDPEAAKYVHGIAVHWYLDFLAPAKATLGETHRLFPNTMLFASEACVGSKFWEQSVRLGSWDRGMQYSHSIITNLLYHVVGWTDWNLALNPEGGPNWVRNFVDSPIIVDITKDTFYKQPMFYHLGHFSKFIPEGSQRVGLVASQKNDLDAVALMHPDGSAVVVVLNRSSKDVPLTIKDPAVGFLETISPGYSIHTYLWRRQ

In one assay the target is Glucocerebrosidase (Homo sapiens (Human), UniProt P04062). Put plainly: Glucocerebrosidase activity assay with blue substrate (4MU-Glc). Particulars: cells marked (act). In kind it is biochemical. The method, then:
The compounds in DMSO solution 0.5 μL/well were transferred to a black 96-well plate. The final titration was 24 nM to 50 μM, 12 concentrations, 2 times dilution. […] After 5 min of incubation at room temperature, the enzyme reaction was initiated by the addition of 33 μL/well blue substrate. Final concentrations of the blue substrate (4MU-Glc) was 1.5 mM. The blue substrate reaction was terminated by the addition of 33 μL/well stop solution (1 M NaOH and 1 M glycine mixture, pH 10) after 30 min of incubation at 37° C. The fluorescence was then measured in the Biotek Synergy H1 multi-mode plate reader with Ex=365 nm and Em=440 nm.
Additional compounds were prepared and tested according to the procedures provided in the examples above.
Additional substituted quinazoline compounds were prepared and tested according to the procedures provided in the examples above.
On to `CC(C)(C)Nc1nc(-c2cccnc2)nc2ccccc12` [compound 54], for which the “IC50 or AC50 (μM): AC50 (act)” value is “Weak (act)”.

Turning to `c1ccc(C2CCCN(c3nc(-c4cccnc4)nc4ccccc34)C2)cc1` (stereo not drawn) [compound 82], the “IC50 or AC50 (μM): AC50 (act)” value is reported as “Weak (act)”.

Turning to `CN1CCN(c2ccc(C(=O)N3CCN(c4nc(-c5cccnc5)nc5ccccc45)CC3)cc2)CC1` [compound 38], the “IC50 or AC50 (μM): AC50 (act)” value is given as “Weak (act)”.

On to `[N-]=[N+]=Nc1c(F)c(F)c(CNc2nc(-c3cccnc3)nc3ccccc23)c(F)c1F` [compound 37], for which the “IC50 or AC50 (μM): AC50 (act)” value is reported as “Weak (act)”.

Consider `c1ccc(Nc2nc(-c3cccnc3)nc3ccccc23)cc1` [compound 50], for which the “IC50 or AC50 (μM): AC50 (act)” value was “Weak (act)”.

The assay is the same for the next values; noted with them: cells marked (act); read-out: IC50 or AC50 (μM): AC50 (act).
Consider `CN(Cc1ccc2c(c1)OCCO2)c1nc(-c2cccnc2)nc2ccccc12` [compound 19], for which the AC50 (commonly the concentration giving half of the maximal activity seen) was determined as 3.98 µM.

Take `CN(Cc1cccnc1)c1nc(-c2cccnc2)nc2ccccc12` [compound 7]: the AC50 came to 12.6 µM.

For the molecule `CN(Cc1ccc(-n2ccnc2)cc1)c1nc(-c2cccnc2)nc2ccccc12` [compound 31], the AC50 turned out to be 19.9 µM.

Consider `CC(C)Cc1noc(CN(C)c2nc(-c3cccnc3)nc3ccccc23)n1` [compound 25], for which the AC50 is 35.5 µM.

As for `c1cncc(-c2nc(N3CCN(CC4COc5ccccc5O4)CC3)c3ccccc3n2)c1` (stereo not drawn) [compound 30], the AC50 came out at 3.13 µM.

For `CCN(CC1COc2ccccc2O1)c1nc(-c2cccnc2)nc2ccccc12` (stereo not drawn) [compound 28], the AC50 was found to be 2.82 µM.

Turning to `CN(Cc1ccc2c(c1)OCO2)c1nc(-c2cccnc2)nc2ccccc12` [compound 11], the AC50 was 1 µM.

Take `c1ccc(CC2CCCN(c3nc(-c4cccnc4)nc4ccccc34)C2)cc1` (stereo not drawn) [compound 87]: the AC50 was 2.51 µM.

With `CC(C)(C)OC(=O)N1CCN(c2nc(-c3cccnc3)nc3ccccc23)CC1` [compound 22], the AC50 turned out to be 10 µM.

As to `Nc1ccc(CCNc2nc(-c3cccnc3)nc3ccccc23)cc1` [compound 71], the AC50 was found to be 2 µM.

Consider `CN(Cc1ccccn1)c1nc(-c2cccnc2)nc2ccccc12` [compound 5], for which the AC50 was 35.5 µM.

For the molecule `CN(Cc1nc2ccccc2o1)c1nc(-c2cccnc2)nc2ccccc12` [compound 18], the AC50 is 11.2 µM.

Turning to `CN1Cc2ccc(CN(C)c3nc(-c4cccnc4)nc4ccccc34)cc2C1` [compound 13], the AC50 came out at 44.7 µM.

Take `CN(Cc1cnc2ccccc2n1)c1nc(-c2cccnc2)nc2ccccc12` [compound 10]: the AC50 was found to be 0.89 µM.

For `CN(CCc1cccc(F)c1)c1nc(-c2cccnc2)nc2ccccc12` [compound 59], the AC50 was 4.47 µM.

Turning to `CN(Cc1cnccn1)c1nc(-c2cccnc2)nc2ccccc12` [compound 9], the AC50 turned out to be 14.1 µM.

For the molecule `Cc1ccc(S(=O)(=O)N2CCN(c3nc(-c4cccnc4)nc4ccccc34)CC2)cc1` [compound 26], the half-maximal activity concentration (AC50) came out at 1 µM.

On to `CN(Cc1ccc2ccccc2c1)c1nc(-c2cccnc2)nc2ccccc12` [compound 17], for which the AC50 was found to be 1.56 µM.

`CN(Cc1ccc2nsnc2c1)c1nc(-c2cccnc2)nc2ccccc12` [compound 21]: the AC50 came out at 3.55 µM.

On to `CN(c1nc(-c2cccnc2)nc2ccccc12)C1CCCCC1` [compound 56], for which the AC50 stood at 5.01 µM.

Turning to `c1cncc(-c2nc(NCCC3COc4ccccc4O3)c3ccccc3n2)c1` (stereo not drawn) [compound 27], the AC50 stood at 0.6 µM.

Regarding `CN(Cc1ccncc1)c1nc(-c2cccnc2)nc2ccccc12` [compound 8], the AC50 turned out to be 15.8 µM.

With `CN(CC1COc2ccccc2O1)c1nc(-c2cccnc2)nc2ccccc12` (stereo not drawn) [compound 3], the AC50 is 1.78 µM.

For the molecule `CN(CC1COCCO1)c1nc(-c2cccnc2)nc2ccccc12` (stereo not drawn) [compound 6], the AC50 worked out at 11.2 µM.

For `CN(Cc1nc2ccccc2s1)c1nc(-c2cccnc2)nc2ccccc12` [compound 14], the half-maximal activity concentration (AC50) was 1.12 µM.

Staying with this assay, now noted: cells marked activator.
For `COC(=O)CCCCCCCCC#Cc1ccc(OCCN(C)c2nc(-c3cccnc3)nc3ccccc23)cc1` [compound 109], the “Activity AC50 or IC50 (μM unless nM indicated): AC50, activator” value (“Activity AC50 or IC50” for short) is reported as “Weak activator”.

`CN(CCCCCCCCCCN(C)c1nc(-c2cccnc2)nc2ccccc12)c1nc(-c2cccnc2)nc2ccccc12` [compound 112]: the “Activity AC50 or IC50” value is “Weak activator”.

With `CN(CCOc1ccc(C#CCOCCOCCNc2nc(-c3cccnc3)nc3ccccc23)cc1)c1nc(-c2cccnc2)nc2ccccc12` [compound 110], the “Activity AC50 or IC50” value is recorded as “Weak activator”.

With `CN(CCOc1ccccc1)c1nc(-c2ccccn2)nc2ccccc12` [compound 143], the “Activity AC50 or IC50” value is on record as “Weak activator”.

Consider `CN(CCOc1ccc(C#CCCCCCCCCC(=O)ON2C(=O)CCC2=O)cc1)c1nc(-c2cccnc2)nc2ccccc12` [compound 153], for which the “Activity AC50 or IC50” value is recorded as “activator”.

Regarding `c1cncc(-c2nc(N3CCCOCC3)c3ccccc3n2)c1` [compound 116], the “Activity AC50 or IC50” value is reported as “Weak activator”.

As for `CN(c1nc(-c2cccnc2)nc2ccccc12)C1CCCCCCC1` [compound 123], the “Activity AC50 or IC50” value was “Weak activator”.

Turning to `CN(c1nc(-c2cccnc2)nc2ccccc12)C1Cc2ccc(C#CCCCCCCCCC(=O)ON3C(=O)CCC3=O)cc2C1` (stereo not drawn) [compound 105], the “Activity AC50 or IC50” value is on record as “Weak activator”.

Staying with this assay, now noted: cells marked activator; read-out: Activity AC50 or IC50 (μM unless nM indicated): AC50, activator.
As for `Cc1ccc(OCCNc2nc(-c3cccnc3)nc3ccccc23)cc1` [compound 90], the concentration at half-maximal activity (AC50) was determined as 0.62 µM.

Regarding `CC(CN(C)c1nc(-c2cccnc2)nc2ccccc12)Oc1ccccc1` (stereo not drawn) [compound 138], the AC50 is 5.62 µM.

For the molecule `C#CCOCCOCCNc1nc(-c2cccnc2)nc2ccccc12` [compound 113], the concentration at half-maximal activity (AC50) stood at 12.6 µM.

For the molecule `CN(CCOc1ccccc1)c1nc(-c2ccco2)nc2ccccc12` [compound 133], the half-maximal activity concentration (AC50) stood at 31.6 µM.

As for `CN(c1nc(-c2cccnc2)nc2ccccc12)C1CCCC1` [compound 118], the AC50 was 22.4 µM.

Take `CN(c1nc(-c2cccnc2)nc2ccccc12)C1CCCCCC1` [compound 121]: the AC50 was determined as 8.91 µM.

In the case of `CN(CCCCc1ccccc1)c1nc(-c2cccnc2)nc2ccccc12` [compound 120], the AC50 was 3.16 µM.

For the molecule `CN(CCc1ccccc1)c1nc(-c2cccnc2)nc2ccccc12` [compound 122], the AC50 was found to be 5.01 µM.

Turning to `CN(CCOc1ccccc1)c1nc(-c2cncnc2)nc2ccccc12` [compound 127], the AC50 was 1.25 µM.

Regarding `CN(CCOc1ccccc1)c1nc(-c2ccccc2F)nc2ccccc12` [compound 128], the AC50 was found to be 1.25 µM.

As for `COC(=O)CCCCCCCCCCc1ccc(OCCN(C)c2nc(-c3cccnc3)nc3ccccc23)cc1` [compound 117], the concentration at half-maximal activity (AC50) is 7.08 µM.

With `CN(CCOc1ccccc1)c1nc(-c2ccoc2)nc2ccccc12` [compound 134], the AC50 was 0.65 µM.

With `CN(CCOc1ccc(C#CCCCCCCC#Cc2ccc(OCCN(C)c3nc(-c4cccnc4)nc4ccccc34)cc2)cc1)c1nc(-c2cccnc2)nc2ccccc12` [compound 111], the AC50 is 35 µM.

In the case of `COc1ccccc1OCCN(C)c1nc(-c2cccnc2)nc2ccccc12` [compound 135], the AC50 is 22.4 µM.

Regarding `CC(COc1ccccc1)N(C)c1nc(-c2cccnc2)nc2ccccc12` (stereo not drawn) [compound 139], the AC50 was 5.62 µM.

Take `c1cncc(-c2nc(N3CCOc4ccccc4C3)c3ccccc3n2)c1` [compound 115]: the AC50 was 7.94 µM.
